Source: patent US11370798B2 (Vertex Pharmaceuticals Incorporated, priority 2012, dated 2022)

System: HCT116 colorectal cancer cells
Assay: Cisplatin sensitization assay (96 h cell viability MTS);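 also: Test-compound concentration that lowers the Cisplatin IC50 by a set fold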
Type: cell-based
Details: compound and Cisplatin added simultaneously, Cisplatin sensitization value
Summary of the method: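 Compound and cisplatin added together as a full matrix of 2-fold serial dilutions from a top final concentration of 10 μM; cells incubated 96 h at 37° C, 5% CO2. Viability then read by MTS after 1 h further incubation; sensitization value reported in μM bins.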

| SMILES | Cisplatin Sensitization Assay |
| --- | --- |
| CNc1cc(OC)c(NC(=O)c2c(N)nn3cc(F)cnc23)cn1 [I-O-90, 2-amino-6-fluoro-N-(4-methoxy-6-(methylamino)pyridin-3-yl)pyrazolo[1,5-a]pyrimidine-3-carboxamide] | + (Cisplatin sensitization value>0.2 μM but <5 μM) |
| Nc1nn2cc(F)cnc2c1C(=O)Nc1cncc(F)c1OC1CCN(C2COC2)CC1 [I-O-91, 2-amino-6-fluoro-N-(5-fluoro-4-((1-(oxetan-3-yl)piperidin-4-yl)oxy)pyridin-3-yl)pyrazolo[1,5-a]pyrimidine-3-carboxamide] | ++ (Cisplatin sensitization value>0.02 μM but <0.2 μM) |
| Nc1nn2cc(F)cnc2c1C(=O)Nc1cnccc1OC1COC1 [I-O-92, 2-amino-6-fluoro-N-(4-(oxetan-3-yloxy)pyridin-3-yl)pyrazolo[1,5-a]pyrimidine-3-carboxamide] | +++ (Cisplatin sensitization value of <0.02 μM) |
